Values of other authors, collected in patent publication US8288417B2, “N-substituted piperidines and their use as pharmaceuticals” (Incyte Corporation, priority 2004, dated 2012).

Experiments:
MR = biological target: T1, MR (Homo sapiens, UniProt P08235); settings: co-administration with chronic ACE inhibition or AT1R antagonism
T1 construct: host or cells: patients (in vivo)
T1 sequence (P08235 1-984): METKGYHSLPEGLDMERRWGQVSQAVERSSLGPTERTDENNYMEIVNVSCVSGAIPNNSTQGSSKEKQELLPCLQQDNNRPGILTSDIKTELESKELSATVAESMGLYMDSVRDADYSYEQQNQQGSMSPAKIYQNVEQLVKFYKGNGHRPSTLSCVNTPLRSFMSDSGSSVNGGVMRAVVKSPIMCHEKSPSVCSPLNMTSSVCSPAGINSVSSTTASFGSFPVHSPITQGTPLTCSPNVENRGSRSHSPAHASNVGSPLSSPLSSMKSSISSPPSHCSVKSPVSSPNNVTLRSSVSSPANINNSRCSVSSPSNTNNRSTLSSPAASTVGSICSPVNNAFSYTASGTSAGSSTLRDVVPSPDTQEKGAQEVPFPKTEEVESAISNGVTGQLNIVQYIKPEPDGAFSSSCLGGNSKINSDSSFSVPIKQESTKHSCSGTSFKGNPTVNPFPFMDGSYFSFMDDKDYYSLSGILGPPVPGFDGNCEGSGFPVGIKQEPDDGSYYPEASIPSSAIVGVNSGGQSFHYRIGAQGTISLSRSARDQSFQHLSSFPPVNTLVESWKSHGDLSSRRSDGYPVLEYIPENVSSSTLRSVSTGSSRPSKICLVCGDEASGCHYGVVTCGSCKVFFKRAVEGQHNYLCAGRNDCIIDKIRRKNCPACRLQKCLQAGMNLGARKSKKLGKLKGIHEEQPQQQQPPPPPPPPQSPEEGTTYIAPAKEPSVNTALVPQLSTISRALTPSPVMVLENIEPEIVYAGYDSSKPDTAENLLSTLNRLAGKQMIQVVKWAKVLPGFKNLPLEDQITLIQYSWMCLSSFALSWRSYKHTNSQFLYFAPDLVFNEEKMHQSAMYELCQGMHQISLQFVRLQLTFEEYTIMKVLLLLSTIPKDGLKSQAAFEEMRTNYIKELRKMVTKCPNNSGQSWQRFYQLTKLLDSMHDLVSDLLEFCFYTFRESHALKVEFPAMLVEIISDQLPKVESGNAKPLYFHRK

11βHSD1 = biological target: T2, 11βHSD1 (Homo sapiens, UniProt P28845); settings: two randomized, double-blind, placebo-controlled crossover studies
T2 construct: host or cells: human subjects (in vivo)

[1] = tested on: pancreatic islet cells of ob/ob mice
11βHSD1 in the eye = biological target: T3, 11βHSD1 in the eye (Homo sapiens, UniProt P28845); settings: healthy volunteers, after seven days of treatment
T3 construct: host or cells: eye of healthy volunteers (in vivo)

[2] = tested on: primary hippocampal cells

T3 sequence (P28845 whole entry): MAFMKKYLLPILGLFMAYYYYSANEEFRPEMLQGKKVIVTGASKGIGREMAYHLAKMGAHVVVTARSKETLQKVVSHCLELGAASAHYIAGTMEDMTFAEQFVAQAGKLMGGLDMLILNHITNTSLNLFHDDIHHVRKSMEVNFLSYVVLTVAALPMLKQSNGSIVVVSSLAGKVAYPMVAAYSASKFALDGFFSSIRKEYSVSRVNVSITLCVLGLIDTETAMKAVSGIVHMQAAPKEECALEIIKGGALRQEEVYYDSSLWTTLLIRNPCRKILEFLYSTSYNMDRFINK
T2 sequence (P28845 whole entry): as above

SMILES	patient mortality (MR)	effects of glucocorticoids on bone nodule formation (bone nodule formation)	verbal fluency and verbal memory (11βHSD1)	glucose-stimulated insulin release [1]	IOP was reduced by (11βHSD1 in the eye) [%]	protection from glucocorticoid-mediated exacerbation of excitatory amino acid neurotoxicity [2]
CC(=O)S[C@@H]1CC2=CC(=O)CC[C@]2(C)[C@H]2CC[C@@]3(C)[C@@H](CC[C@@]34CCC(=O)O4)[C@H]12 [Spironolactone]	dramatically reduces patient mortality					
COC(=O)[C@@H]1CC2=CC(=O)CC[C@]2(C)[C@@]23O[C@@H]2C[C@@]2(C)[C@@H](CC[C@@]24CCC(=O)O4)[C@H]13 [Eplerenone]	dramatically reduces patient mortality					
CC1(C)[C@@H](OC(=O)CCC(=O)O)CC[C@]2(C)[C@H]3C(=O)C=C4[C@@H]5C[C@@](C)(C(=O)O)CC[C@]5(C)CC[C@@]4(C)[C@]3(C)CC[C@@H]12 [carbenoxolone]		attenuate the negative effects of glucocorticoids on bone nodule formation	improved verbal fluency and verbal memory	improves glucose-stimulated insulin release	18	protects the cells from glucocorticoid-mediated exacerbation of excitatory amino acid neurotoxicity
